Results as given in patent US20260102359A1, “COMBINATION TREATMENT OF DERMAL AND TRANSDERMAL FIBROTIC DISEASES, DISORDERS AND ASSOCIATED PAIN AND INFLAMMATION” (ERESINA, LLC, priority 2022, published 2026).
Counter-ions that a name gives are not always drawn.

Test system: hDMFa myofibroblast cells

Question: How did the “Compound Myofibroblast Cytotoxicity Activity” value turn out when O=S(=O)([O-])c1cc(O)ccc1O.O=S(=O)([O-])c1cc(O)ccc1O.[Ca+2] [Cmpd 205, Calcium dobesilate] was run?
Answer: ++

Question: For C=C(C)[C@@H]1CC[C@@]2(C)[C@H]1[C@H]1CCC3[C@@]4(C)CC[C@H](O)C(C)(C)[C@@H]4CC[C@@]3(C)[C@]1(C)C[C@@H]2O (some centres unmarked) [Cmpd 207, Calenduladiol], which “Compound Myofibroblast Cytotoxicity Activity” value is on record?
Answer: +

Question: With Cc1ccc([C@@H]2O[C@H](CO)[C@@H](O)[C@H](O)[C@H]2O)cc1Cc1ccc(-c2ccc(F)cc2)s1.O [Cmpd 209, Canagliflozin (hemihydrate)] as the compound, how does the “Compound Myofibroblast Cytotoxicity Activity” value read?
Answer: +++++

Question: CCOc1nc2cccc(C(=O)O)c2n1Cc1ccc(-c2ccccc2-c2nnn[nH]2)cc1 [Cmpd 210, Candesartan] was tested. Which “Compound Myofibroblast Cytotoxicity Activity” value did it give?
Answer: ++

Question: With CCOc1nc2cccc(C(=O)OC(C)OC(=O)OC3CCCCC3)c2n1Cc1ccc(-c2ccccc2-c2nnn[nH]2)cc1 (centres unmarked) [Cmpd 211, Candesartan Cilexetil] as the compound, how does the “Compound Myofibroblast Cytotoxicity Activity” value read?
Answer: +++

Question: For CCCCCCCCCC(=O)O [Cmpd 212, Caprate (10:0)], which “Compound Myofibroblast Cytotoxicity Activity” value is on record?
Answer: ++

Question: How did the “Compound Myofibroblast Cytotoxicity Activity” value turn out when C[N+](C)(C)CCOC(N)=O.[Cl-] [Cmpd 214, Carbamoylcholine chloride] was run?
Answer: ++

Question: How did the “Compound Myofibroblast Cytotoxicity Activity” value turn out when O=NN(CCCl)C(=O)NCCCl [Cmpd 218, Carmustine] was run?
Answer: ++

Question: For CC(C)(C)NCC(O)COc1cccc2c1CCC(=O)N2 (centres unmarked) [Cmpd 219, Carteolol HCl], which “Compound Myofibroblast Cytotoxicity Activity” value is on record?
Answer: ++

Question: With Cc1ccc(C(C)C)cc1O [Cmpd 220, Carvacrol] as the compound, how does the “Compound Myofibroblast Cytotoxicity Activity” value read?
Answer: ++

Question: Which “Compound Myofibroblast Cytotoxicity Activity” value does the source give for COc1ccccc1OCCNCC(O)COc1cccc2[nH]c3ccccc3c12 (centres unmarked) [Cmpd 221, Carvedilol] here?
Answer: +++

Question: How did the “Compound Myofibroblast Cytotoxicity Activity” value turn out when C=C1CC[C@H]2O[C@]2(C)CC[C@@H]2[C@@H]1CC2(C)C [Cmpd 222, Caryophyllene Oxide] was run?
Answer: ++

Question: For COc1cc2c(Oc3ccc4[nH]c(C)cc4c3F)ncnc2cc1OCCCN1CCCC1 [Cmpd 226, Cediranib (AZD217)], which “Compound Myofibroblast Cytotoxicity Activity” value is on record?
Answer: ++++

Question: How did the “Compound Myofibroblast Cytotoxicity Activity” value turn out when CC1=C(C(=O)O)N2C(=O)[C@@H](NC(=O)[C@H](N)c3ccc(O)cc3)[C@H]2SC1 [Cmpd 227, Cefadroxil (hydrate)] was run?
Answer: ++

Question: Cc1nnc(SCC2=C(C(=O)O)N3C(=O)[C@@H](NC(=O)Cn4cnnn4)[C@H]3SC2)s1 [Cmpd 228, Cefazolin (sodium salt)] was tested. Which “Compound Myofibroblast Cytotoxicity Activity” value did it give?
Answer: +++

Question: How did the “Compound Myofibroblast Cytotoxicity Activity” value turn out when CO/N=C(\C(=O)N[C@@H]1C(=O)N2C(C(=O)OCOC(=O)C(C)(C)C)=C(C)CS[C@H]12)c1csc(N)n1.Cl [Cmpd 230, Cefetamet pivoxil hydrochloride] was run?
Answer: +++++

Question: O=C(O)C1=C(CSc2nnnn2CS(=O)(=O)O)CS[C@@H]2[C@H](NC(=O)[C@H](O)c3ccccc3)C(=O)N12 [Cmpd 232, Cefonicid (sodium salt)] was tested. Which “Compound Myofibroblast Cytotoxicity Activity” value did it give?
Answer: ++++

Question: For CO/N=C(\C(=O)N[C@@H]1C(=O)N2C(C(=O)O)=C(COC(C)=O)CS[C@H]12)c1csc(N)n1 [Cmpd 233, Cefotaxime (sodium salt)], which “Compound Myofibroblast Cytotoxicity Activity” value is on record?
Answer: +++

Question: How did the “Compound Myofibroblast Cytotoxicity Activity” value turn out when CO[C@@]1(NC(=O)Cc2cccs2)C(=O)N2C(C(=O)O)=C(COC(N)=O)CS[C@@H]21 [Cmpd 234, Cefoxitin (sodium salt)] was run?
Answer: +++++

Question: For CO/N=C(\C(=O)N[C@@H]1C(=O)N2C(C(=O)[O-])=C(CSC(=O)c3ccco3)CS[C@H]12)c1csc(N)n1.[Na+] [Cmpd 237, Ceftiofur sodium], which “Compound Myofibroblast Cytotoxicity Activity” value is on record?
Answer: ++

Question: With CO/N=C(\C(=O)N[C@@H]1C(=O)N2C(C(=O)OC(C)OC(C)=O)=C(COC(N)=O)CS[C@H]12)c1ccco1 (some centres unmarked) [Cmpd 238, Cefuroxime axetil] as the compound, how does the “Compound Myofibroblast Cytotoxicity Activity” value read?
Answer: ++

Question: How did the “Compound Myofibroblast Cytotoxicity Activity” value turn out when O=C[C@H](O)[C@@H](O)[C@H](O[C@@H]1O[C@H](CO)[C@@H](O)[C@H](O)[C@H]1O)[C@H](O)CO [Cmpd 239, Cellobiose] was run?
Answer: +++

Question: For COc1ccc2cc1Oc1ccc(cc1)C[C@H]1c3c(cc4c(c3Oc3cc5c(cc3OC)CCN(C)[C@@H]5C2)OCO4)CCN1C [Cmpd 241, Cepharanthine], which “Compound Myofibroblast Cytotoxicity Activity” value is on record?
Answer: ++
